The values that follow come from patent US4124703A, “Luliberin analogs” (Imperial Chemical Industries Limited, priority 1976, dated 1978).

One series concerns luliberin. The following applies: literature: Coy et al., Molecular and Cellular Endocrinology, 1976, 5, 201-208; cited from earlier work.
Series [1] in a line: overt toxic effects at multiples of the minimum active dose. The following applies: dosed at 20 times its minimum effective dose. Format: in vivo.

Non-standard residues stand in square brackets, D forms with d. Residues, ends and D or L forms follow the SMILES beside them. pGlu = O=C1CC[C@@H](C(=O)O)N1; azaGly = NNC(=O)O

In the case of [D-Phe^2, D-Phe^6 ] luliberin, the luliberin antagonist properties result with luliberin is “has luliberin antagonist properties”. With `CC(C)C[C@H](NC(=O)[C@@H](Cc1ccccc1)NC(=O)[C@H](Cc1ccc(O)cc1)NC(=O)[C@H](CO)NC(=O)[C@H](Cc1c[nH]c2ccccc12)NC(=O)[C@@H](Cc1ccccc1)NC(=O)[C@@H]1CCC(=O)N1)C(=O)N[C@@H](CCCNC(=N)N)C(=O)N1CCC[C@H]1C(=O)NNC(N)=O` [Example 1, L-pyroglutamyl-D-phenylalanyl-L-tryptophyl-L-seryl-L-tyrosyl-D-phenylalanyl-L-leucyl-L-arginyl-L-prolylazaglycine amide] ([pGlu][dF]WSY[dF]LRP[azaGly]-NH2), the overt toxic effects result in series [1] is “no overt toxic effects”.
